Assay results: patent US8716493B2, “Multicyclic compounds and the use thereof” (Cephalon, Inc., priority 2000, dated 2014)
Structures can show the parent of a compound that is named as a salt. Where two headings read alike, the source gives them in different places.

Target: recombinant human PARP (Homo sapiens, UniProt P09874)
Assay: Measurement of PARP enzymatic activity (transfer of radiolabeled ADP-ribose from NAD+ to protein acceptor)
Format: biochemical
Procedure: PARP activity was monitored by transfer of radiolabeled ADP-ribose units from [^32]NAD^+ to a protein acceptor such as histone or PARP itself. […] The reactions were initiated by the addition of 100 μM NAD^+ supplemented with 2 uCi [^32]NAD^+/mL and maintained at room temperature for 12 minutes. […] The amount of acid-insoluble radioactivity, corresponding to polyADP-ribosylated protein, was quantitated in a Wallac MicroBeta scintillation counter.
Single-point inhibition data were calculated by comparing PARP, VEGFR2, or MLK3 activity in the presence of inhibitor to activity in the presence of DMSO only. Inhibition curves for compounds were generated by plotting percent inhibition versus log10 of the concentration of compound. IC50 values were calculated by nonlinear regression using the sigmoidal dose-response (variable slope) equation in GraphPad Prism as follows: y=bottom+(top−bottom)/(1+10^(log IC50^−x)*Hillslope) where y is the % activity at a given concentration of compound, x is the logarithm of the concentration of compound, bottom is the % inhibition at the lowest compound concentration tested, and top is the % inhibition at the highest compound concentration examined. The values for bottom and top were fixed at 0 and 100, respectively. IC50 values were reported as the average of at least three separate determinations.
For some compounds, inhibiting data is presented as percent inhibition at a specified concentration. Compounds are tabulated together with compound number, substituents, and enzyme inhibition data.

Sequence of recombinant human PARP (P09874 whole entry): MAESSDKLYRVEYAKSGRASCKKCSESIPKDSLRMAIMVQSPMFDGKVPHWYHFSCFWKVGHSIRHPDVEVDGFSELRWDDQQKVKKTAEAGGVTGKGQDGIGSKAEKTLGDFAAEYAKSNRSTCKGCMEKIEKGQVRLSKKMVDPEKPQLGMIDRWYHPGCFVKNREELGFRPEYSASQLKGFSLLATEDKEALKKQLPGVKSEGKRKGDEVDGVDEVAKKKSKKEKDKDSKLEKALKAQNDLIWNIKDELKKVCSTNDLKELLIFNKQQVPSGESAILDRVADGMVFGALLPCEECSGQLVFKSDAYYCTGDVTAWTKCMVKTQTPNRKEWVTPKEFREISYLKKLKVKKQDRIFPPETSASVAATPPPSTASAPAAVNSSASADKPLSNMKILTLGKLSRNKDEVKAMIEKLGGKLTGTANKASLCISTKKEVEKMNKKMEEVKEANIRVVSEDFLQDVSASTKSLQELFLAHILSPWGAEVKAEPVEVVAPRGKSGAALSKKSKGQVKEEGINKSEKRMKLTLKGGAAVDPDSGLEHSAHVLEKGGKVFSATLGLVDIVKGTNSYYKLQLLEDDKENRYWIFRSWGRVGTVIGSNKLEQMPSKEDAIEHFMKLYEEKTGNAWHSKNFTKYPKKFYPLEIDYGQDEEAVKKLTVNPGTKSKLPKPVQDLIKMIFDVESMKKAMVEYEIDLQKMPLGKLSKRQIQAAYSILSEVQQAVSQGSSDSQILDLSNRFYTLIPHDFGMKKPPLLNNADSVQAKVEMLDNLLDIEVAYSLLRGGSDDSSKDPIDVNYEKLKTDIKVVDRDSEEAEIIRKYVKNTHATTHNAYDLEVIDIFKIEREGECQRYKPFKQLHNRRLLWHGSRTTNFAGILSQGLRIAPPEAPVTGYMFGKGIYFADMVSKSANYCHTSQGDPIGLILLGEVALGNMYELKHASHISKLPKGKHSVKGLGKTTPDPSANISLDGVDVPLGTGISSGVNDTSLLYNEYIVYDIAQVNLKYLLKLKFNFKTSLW

SMILES	IC50 (Table 2, read-out: PARP IC50) [nM]	also measured
O=C1NC(=O)c2c1c1c(c3[nH]c4ccc(OC(=O)N5CCN(CCO)CC5)cc4c23)CCC1 [Compound 15l]		IC50 (PARP IC50 (nM), Table 8): 15 nM
NC(CCCNc1nc(-c2ccc3[nH]c4c5c(c6c(c4c3c2)C(=O)NC6=O)CCC5)cs1)C(=O)O (stereo not drawn) [Compound 3f]	22	
O=C1NC(=O)c2c1c1c(c3[nH]c4ccc(-c5csc(CNC(=O)C6CCCC6)n5)cc4c23)CCC1 [Compound 3x]		IC50 (PARP IC50 (nM), Table 2): 52 nM
NCc1ccc2[nH]c3c4c(c5c(c3c2c1)C(=O)NC5=O)CCC4 [Compound 2p, 3-(Aminomethyl)-5,7,8,9,10,11-hexahydrocyclopent[a]pyrrolo[3,4-c]carbazole-5(6H), 7-dione hydrochloride]	13	
O=C1NC(=O)c2c1c1c(c3[nH]c4ccc(Br)cc4c23)CCC1 [Compound 2a]	25	
O=C(NCCc1ccccn1)Oc1ccc2[nH]c3c4c(c5c(c3c2c1)C(=O)NC5=O)CCC4 [Compound 15g]		IC50 (PARP IC50 (nM), Table 8): 36 nM
CS(=O)(=O)Cc1nc(-c2ccc3[nH]c4c5c(c6c(c4c3c2)C(=O)NC6=O)CCC5)cs1 [Compound 3z]	38	
CN(C)CCCNC(=O)c1ccc2[nH]c3c4c(c5c(c3c2c1)C(=O)NC5=O)CCC4 [Compound 2ch]	33	
O=C(NCc1cccnc1)Oc1ccc2[nH]c3c4c(c5c(c3c2c1)C(=O)NC5=O)CCC4 [Compound 15f]		IC50 (PARP IC50 (nM), Table 8): 34 nM
CCC(=O)NCc1ccc2[nH]c3c4c(c5c(c3c2c1)C(=O)NC5=O)CCC4 [Compound 2s, 3-(Propanoylaminomethyl)-5,7,8,9,10,11-hexahydrocyclopent[a]pyrrolo[3,4-c]carbazole-5(6H), 7-dione]	28	
CN(CC1CCNCC1)C(=O)c1ccc2[nH]c3c4c(c5c(c3c2c1)C(=O)NC5=O)CCC4 [Compound 2cy]	23	
CCCCC(=O)NCc1nc(-c2ccc3[nH]c4c5c(c6c(c4c3c2)C(=O)NC6=O)CCC5)cs1 [Compound 3v]	56	
CN(C)CCN(C)C(=O)c1ccc2[nH]c3c4c(c5c(c3c2c1)C(=O)NC5=O)CCC4 [Compound 2cu]	151	
CCN(CC)Cc1ccc2[nH]c3c4c(c5c(c3c2c1)C(=O)NC5=O)CCC4 [Compound 2bm]	17	
CCC(=O)NCc1nc(-c2ccc3[nH]c4c5c(c6c(c4c3c2)C(=O)NC6=O)CCC5)cs1 [Compound 3s]	56	
N#CCc1ccc2[nH]c3c4c(c5c(c3c2c1)C(=O)NC5=O)CCC4 [Compound 2bc]	24	
COc1c(C#N)ccc2[nH]c3c4c(c5c(c3c12)C(=O)NC5=O)CCC4 [Compound 14o]		IC50 (Table 18, read-out: PARP IC50): 7 nM
CN1CCN(C(=O)c2ccc3[nH]c4c5c(c6c(c4c3c2)C(=O)NC6=O)CCC5)CC1 [Compound 2cq]	12	
O=C1NC(=O)c2c1c1c(c3[nH]c4ccc(OC(=O)N5CCCCC5)cc4c23)CCC1 [Compound 15p]		IC50 (PARP IC50, Table 18): 82 nM
N#Cc1c[nH]c2c3c(c4c(c12)C(=O)NC4=O)CCC3 [Compound 8d, 3-Cyano-1,6,7,8-tetrahydrocyclopent[g]indole-4,5-dicarboxylate imide]		IC50 (Table 4, read-out: PARP IC50): 6 nM

SMILES	IC50 (Table 2, read-out: PARP IC50) [nM]	also measured
CC(=O)NCc1nc(-c2ccc3[nH]c4c5c(c6c(c4c3c2)C(=O)NC6=O)CCC5)cs1 [Compound 3n]	20	
O=c1[nH][nH]c(=O)c2c1c1c(c3[nH]ccc32)CCC1 [Compound 8e, 1,6,7,8-Tetrahydrocyclopent[g]indole-4,5-dicarboxylate hydrazide]		IC50 (Table 4, read-out: PARP IC50): 1820 nM
O=C1c2c3c(c4[nH]c5ccccc5c4c2C(=O)N1S(=O)(=O)c1ccccc1)CCC3 [Compound 1j]		IC50 (Table 1, read-out: PARP IC50): 250 nM
CCOCCOc1cccc2[nH]c3c4c(c5c(c3c12)C(=O)NC5=O)CCC4 [Compound 14i]		IC50 (Table 18, read-out: PARP IC50): 36 nM
NCCNC(=O)CCC(=O)c1ccc2[nH]c3c4c(c5c(c3c2c1)C(=O)NC5=O)CCC4 [Compound 4e]	22	
CCOc1cccc2[nH]c3c4c(c5c(c3c12)C(=O)NC5=O)CCC4 [Compound 14g]		IC50 (Table 18, read-out: PARP IC50): 56 nM
CC(C)(C)OC(=O)NCC(=O)NCc1ccc2[nH]c3c4c(c5c(c3c2c1)C(=O)NC5=O)CCC4 [Compound 2v, 3-(N-(2-(N-Boc-amino)acetyl)aminomethyl)-5,7,8,9,10,11-hexahydrocyclopent[a]pyrrolo[3,4-c]carbazole-5(6H), 7-dione]	33	
O=C1NC(=O)c2c1c1c(c3[nH]c4ccc(CNCc5ccc6[nH]c7c8c(c9c(c7c6c5)C(=O)NC9=O)CCC8)cc4c23)CCC1 [Compound 2q, Bis-[5(6H), 7-dioxo-5,7,8,9,10,11-hexahydrocyclopent[a]pyrrolo[3,4-c]carbazol-3-ylmethyl]amine hydrochloride]	167	
CCOCc1ccc2[nH]c3c4c(c5c(c3c2c1)C(=O)NC5=O)CCC4 [Compound 2de]	43	
O=C(O)c1nccnc1C(=O)c1ccc2[nH]c3c4c(c5c(c3c2c1)C(=O)NC5=O)CCC4 [Compound 4k]	1	
CN(C)Cc1ccc2[nH]c3c4c(c5c(c3c2c1)C(=O)NC5=O)CCC4 [Compound 2bj]	29	
CN(C)CCCOc1ccc2[nH]c3c4c(c5c(c3c2c1)C(=O)NC5=O)CCC4 [Compound 2as]	100	
COC(=O)C(=O)c1ccc2[nH]c3c4c(c5c(c3c2c1)C(=O)NC5=O)CCC4 [Compound 2ba]	12	
CC(O)c1ccc2[nH]c3c4c(c5c(c3c2c1)C(=O)NC5=O)CCC4 (stereo not drawn) [Compound 2ax]	102	
COc1cccc2[nH]c3c4c(c5c(c3c12)C(=O)N(CN1CCN(C)CC1)C5=O)CCC4 [Compound 16e]		IC50 (Table 18, read-out: PARP IC50): 14 nM
O=C(NCc1cccnc1)c1ccc2[nH]c3c4c(c5c(c3c2c1)C(=O)NC5=O)CCC4 [Compound 2cl]	21	
O=C1NC(=O)c2c1c1c(c3[nH]c4ccc(CN5CCOCC5)cc4c23)CCC1 [Compound 2bv]	32	
CC(C)(C)OC(=O)NCCC(=O)NCc1ccc2[nH]c3c4c(c5c(c3c2c1)C(=O)NC5=O)CCC4 [Compound 2ca]	95	
NCCCC(=O)NCc1ccc2[nH]c3c4c(c5c(c3c2c1)C(=O)NC5=O)CCC4 [Compound 2y, 3-(N-(4-(Amino)butanoyl)aminomethyl)-5,7,8,9,10,11-hexahydrocyclopent[a]pyrrolo[3,4-c]carbazole-5(6H), 7-dione]	54	
CC(C)(C)OC(=O)N1CCN(C(=O)CCC(=O)c2ccc3[nH]c4c5c(c6c(c4c3c2)C(=O)NC6=O)CCC5)CC1 [Compound 4q]	10	

SMILES	IC50 (Table 2, read-out: PARP IC50) [nM]	also measured
COc1c(Br)ccc2[nH]c3c4c(c5c(c3c12)C(=O)NC5=O)CCC4 [Compound 14m]		IC50 (Table 18, read-out: PARP IC50): 67 nM
CC(C)(C)OC(=O)[C@@H]1CCCN1CC(=O)c1ccc2[nH]c3c4c(c5c(c3c2c1)C(=O)NC5=O)CCC4 [Compound 4b]	12	
CN1CCN(C(=O)Oc2ccc3[nH]c4c5c(c6c(c4c3c2)C(=O)NC6=O)CCC5)CC1 [Compound 15b]		IC50 (PARP IC50 (nM), Table 8): 51 nM
O=C1NC(=O)c2c1c1c(c3[nH]c4c(ccc[n+]4[O-])c23)CCC1 [Compound 8l]		IC50 (Table 18, read-out: PARP IC50): 38 nM
Cc1ccc2[nH]c3c4c(c5c(c3c2c1)C(=O)NC5=O)CCC4 [Compound 2bf]	82	
O=C(NCc1nc(-c2ccc3[nH]c4c5c(c6c(c4c3c2)C(=O)NC6=O)CCC5)cs1)OCc1ccccc1 [Compound 3j]		IC50 (PARP IC50 (nM), Table 2): 20 nM
CC(=O)NCc1ccc2[nH]c3c4c(c5c(c3c2c1)C(=O)NC5=O)CCC4 [Compound 2r, 3-(Acetylaminomethyl)-5,7,8,9,10,11-hexahydrocyclopent[a]pyrrolo[3,4-c]carbazole-5(6H), 7-dione]	13	
CC(C)Oc1cccc2[nH]c3c4c(c5c(c3c12)C(=O)NC5=O)CCC4 [Compound 14h]		IC50 (Table 18, read-out: PARP IC50): 207 nM
CC(C)(C)OC(=O)NCCNC(=O)CCC(=O)c1ccc2[nH]c3c4c(c5c(c3c2c1)C(=O)NC5=O)CCC4 [Compound 4d]	16	
CC(=O)Nc1nc(-c2ccc3[nH]c4c5c(c6c(c4c3c2)C(=O)NC6=O)CCC5)cs1 [Compound 3i]	54	
NCCCCC(N)C(=O)n1c2ccc(Br)cc2c2c3c(c4c(c21)CCC4)C(=O)NC3 [Compound 6i, 3-Bromo-11-L-lysyl-5,7,8,9,10,11-hexahydrocyclopent[a]pyrrolo[3,4-c]carbazole-7(6H)-one dihydrochloride]		PARP percent inhibition @ 3 uM (3 uM, Table 3): [35% @
O=C1NC(O)c2c1c1c(c3[nH]c4ccccc4c23)CCC1 (stereo not drawn) [Compound 2ay]	408	
O=C1NC(=O)c2c1c1c(c3[nH]c4cccc(OCCO)c4c23)CCC1 [Compound 14k]		IC50 (Table 18, read-out: PARP IC50): 83 nM
COCCNC(=O)Oc1ccc2[nH]c3c4c(c5c(c3c2c1)C(=O)NC5=O)CCC4 [Compound 15c]		IC50 (PARP IC50 (nM), Table 8): 40 nM
Cc1nc(-c2ccc3[nH]c4c5c(c6c(c4c3c2)C(=O)NC6=O)CCC5)cs1 [Compound 3b]	40	
O=C(CCC(=O)N1CCCCC1)c1ccc2[nH]c3c4c(c5c(c3c2c1)C(=O)NC5=O)CCC4 [Compound 4p]	10	
O=CNCc1ccc2[nH]c3c4c(c5c(c3c2c1)C(=O)NC5=O)CCC4 [Compound 2ce]	34	
COc1c(I)ccc2[nH]c3c4c(c5c(c3c12)C(=O)NC5=O)CCC4 [Compound 14n]		IC50 (Table 18, read-out: PARP IC50): 126 nM
CN(C)CCOC(=O)c1ccc2[nH]c3c4c(c5c(c3c2c1)C(=O)NC5=O)CCC4 [Compound 2cz]	30	
NCc1nc(-c2ccc3[nH]c4c5c(c6c(c4c3c2)C(=O)NC6=O)CCC5)cs1 [Compound 3k]	42	
